# Data taken from patent US9624242B2, “11-2(2-pyrrolidin-1-yl-ethoxy)-14,19-dioxa-5,7,26-triaza-tetracyclo[19.3.1.1(2,6).1(8,12)]heptacosa-1(25),2(26),3,5,8,10,12(27),16,21,23-decaene citrate salt” (CTI BIOPHARMA CORP., priority 2008, dated 2017).
# Structures can show the parent of a compound that is named as a salt. Where two headings read alike, the source gives them in different places.
# Columns and labels:
# Assay type in all cases: physicochemical
# [1] = Thermal gravimetric analysis (TGA)
# Experimental: The samples of both hydrochloride (comparative) and citrate salts were subjected to thermal gravimetric analysis and differential scanning calorimetry under the following conditions. DSC data were collected on a TA Instruments Q2000 equipped with a 50 position auto-sampler. The instrument was calibrated for energy and temperature calibration using certified indium. Typically 0.5-3 mg of each sample, in a pin-holed aluminium pan, was heated at 10° C.·min^−1 from 25° C. to 270° C.
# TGA data were collected on a TA Instruments Q500 TGA, equipped with a 16 position auto-sampler. The instrument was temperature calibrated using certified Alumel. Typically 5-30 mg of each sample was loaded onto a pre-tared platinum crucible and aluminium DSC pan, and was heated at 10° C.·min^−1 from ambient temperature to 300° C. A nitrogen purge at 60 ml·min^−1 was maintained over the sample. The instrument control software was Thermal Advantage v4.6.6 and the data were analysed using Universal Analysis v4.3A. Alternatively, TGA data were collected on a Mettler TGA/SDTA 851e equipped with a 34 position auto-sampler. The instrument was temperature calibrated using certified indium. Typically 5-30 mg to of each sample was loaded onto a pre-weighed aluminium crucible and was heated at 10° C.·min^−1 from ambient temperature to 300° C. A nitrogen purge at 50 ml·min^−1 was maintained over the sample. The instrument control and data analysis software was STARe v9.01.
# [2] = Solid form analysis of salt batches (XRPD, DSC, TGA, GVS); conditions: hydrochloride salt batches; hydrochloride
# Source text: Initial studies into compound I involved analysis of the hydrochloride salt. It was found as summarised in Table 1 below, that the initially prepared hydrochloride salt produces an inconsistent solid form with significant variability in the DSC, TGA, GVS and XRPD pattern (see FIGS. 1 to 16).
# The samples of both hydrochloride (comparative) and citrate salts were subjected to X-ray diffraction to determine the characteristic X-ray diffraction pattern. The conditions used were as follows: X-Ray Powder Diffraction patterns were collected on a Siemens D5000 diffractometer using Cu Kα radiation (40 kV, 40 mA), θ-θ goniometer, divergence of V20 and receiving slits, a graphite secondary monochromator and a scintillation counter. The instrument is performance checked using a certified Corundum standard (NIST 1976).
# Samples run under ambient conditions were prepared as flat plate specimens using powder as received. Approximately 35 mg of the sample was gently packed into a cavity cut into polished, zero-background (510) silicon wafer. The sample was rotated in its own plane during analysis. The details of the data collection are: • Angular range: 2 to 42°2θ • Step size: 0.05°2θ • Collection time: 4 s·step^1.
# Alternatively, X-Ray Powder Diffraction patterns were collected on a Bruker AXS C2 GADDS diffractometer using Cu Kα radiation (40 kV, 40 mA), automated XYZ stage, laser video microscope for auto-sample positioning and a HiStar 2-dimensional area detector. X-ray optics consists of a single Gabel multilayer mirror coupled with a pinhole collimator of 0.3 mm. The beam divergence, i.e. the effective size of the X-ray beam on the sample, was approximately 4 mm. A θ-θ continuous scan mode was employed with a sample-detector distance of 20 cm which gives an effective 2θ range of 3.2°-29.7°. Typically the sample would be exposed to the X-ray beam for 120 seconds.
# Samples run under ambient conditions were prepared as flat plate specimens using powder as received without grinding. Approximately 1-2 mg of the sample was lightly pressed on a glass slide to obtain a flat surface.
# Karl-Fischer analysis = test: Karl-Fischer analysis
# [3] = Maturation of citrate salt in 27 solvents, solids analysed by XRPD
# Experimental: In order to determine the propensity of polymorphism for the citrate salt the group A material was maturated in 27 different solvents. A small amount of solid was slurried with the corresponding solvent (see Table 4 below) and stored in the incubator and subjected to 4 h-heat/cool cycles at 50° C./r.t. for 24 h. The solvents were then removed under vacuum, and the remaining solids analysed by XRPD.
# [4] = Stress tests at elevated temperature and humidity, analysed by XRPD
# Experimental: The group three material was stressed under conditions which might cause it is to convert to group one material or, indeed, another hydrated or polymorphic form. Thus samples were stored at 40° C./75% RH and also at 60° C./96% RH and analysed at regular intervals by XRPD.
# The stability of the citrate salt group A material was tested in harsher conditions, when the samples were kept for a week in a humidity chamber at 60° C. and 96% RH.
# [5] = Gravimetric Vapour Sorption (GVS) with post-GVS XRPD; conditions: for solid form / XRPD pattern post GVS compared with before: XRPD after GVS experiment; for solid form / XRPD pattern post GVS compared with before / GVS mass lost on going to dryness: hydrochloride; for GVS mass gain: from 40% RH to 90% RH; for GVS mass lost on going to dryness: from 90% RH to dryness
smiles,measurement,setting,value
"C1=CCOCc2cc(ccc2OCCN2CCCC2)Nc2nccc(n2)-c2cccc(c2)COC1.Cl [Batch HCl 2, 11-(2-pyrrolidin-1-yl-ethoxy)-14,19-dioxa-5,7,26-triaza-tetracyclo[19.3.1.1(2,6).1(8,12)]heptacosa-1(25),2(26),3,5,8,10,12(27),16,21,23-decaene hydrochloride]",decomposition / degradation temperature in TGA,[1],260 °C
same,water lost in the first phase of the TGA,[1]; hydrochloride,5.6%
same,equivalents of water corresponding to TGA weight loss,[1]; hydrochloride,1.67 equivalents of water
same,Solid Form Comment,[2],Predominately Group 1
"C1=CCOCc2cc(ccc2OCCN2CCCC2)Nc2nccc(n2)-c2cccc(c2)COC1.Cl [Batch HCl 3, 11-(2-pyrrolidin-1-yl-ethoxy)-14,19-dioxa-5,7,26-triaza-tetracyclo[19.3.1.1(2,6).1(8,12)]heptacosa-1(25),2(26),3,5,8,10,12(27),16,21,23-decaene hydrochloride]",decomposition / degradation temperature in TGA,[1],260 °C
same,total weight lost in the TGA,[1],3.4%
same,another loss in TGA,[1]; at 165° C.,1.97%
same,water lost in the first phase of the TGA,[1]; hydrochloride,1.5%
same,equivalents of water corresponding to TGA weight loss,[1]; hydrochloride,0.5 equivalents of water
same,equivalents of water by Karl-Fischer analysis,Karl-Fischer analysis,1.1 equivalents
same,water content by Karl-Fischer analysis,Karl-Fischer analysis,3.79%
same,Solid Form Comment,[2],Group 1 + 3 + little amorphous
"C1=C/COCc2cc(ccc2OCCN2CCCC2)Nc2nccc(n2)-c2cccc(c2)COC/1 [citrate salt group A material, 11-(2-pyrrolidin-1-yl-ethoxy)-14,19-dioxa-5,7,26-triaza-tetracyclo[19.3.1.1(2,6).1(8,12)]heptacosa-1(25),2(26),3,5,8,10,12(27),16,21,23-decaene]",Solid Form after maturation,"[3]; 1,4-dioxane",Form A
same,Solid Form after maturation,[3]; 1-butanol,Form A
same,Solid Form after maturation,[3]; 1-pentanol,Form A
same,Solid Form after maturation,[3]; 1-propanol,Form A
same,Solid Form after maturation,[3]; 2-butanol,Form A
same,Solid Form after maturation,[3]; 2-methoxy ethanol,Form A
same,Solid Form after maturation,[3]; 3-methyl-1-butanol,Form A
same,solid forms identified after maturation,"[3]; 27 different solvents, 4 h heat/cool cycles 50° C./r.t. for 24 h",only one solid form
same,Solid Form after maturation,[3]; Acetonitrile,Form A
same,Solid Form after maturation,[3]; Cyclohexane,Form A
same,Solid Form after maturation,[3]; DMSO,Form A
same,Solid Form after maturation,[3]; Dicloro-methane,Form A
same,Solid Form after maturation,[3]; Ethanol,Form A
same,Solid Form after maturation,[3]; Ethyl acetate,Form A
same,Solid Form after maturation,[3]; Heptane,Form A
same,Solid Form after maturation,[3]; IPA,Form A
same,Solid Form after maturation,[3]; Isobutyl acetate,Form A
same,Solid Form after maturation,[3]; Isopropyl acetate,Form A
same,Solid Form after maturation,[3]; Methyl isobutyl ketone,Form A
same,Solid Form after maturation,[3]; Methylethyl ketone,Form A
same,Solid Form after maturation,[3]; Nitromethane,Form A
same,Solid Form after maturation,[3]; Propyl acetate,Form A
same,Solid Form after maturation,[3]; TBME,Form A
same,Solid Form after maturation,[3]; Tetrahydro furan,Form A
same,Solid Form after maturation,[3]; Toluene,Form A
same,Solid Form after maturation,[3]; Water,Form A
same,Solid Form after maturation,[3]; acetone,Form A
same,Solid Form after maturation,[3]; methanol,Form A
same,change of crystalline pattern (XRPD) after stress,[4]; one week in humidity chamber at 60° C. and 96% RH,no changes are observed
"C1=CCOCc2cc(ccc2OCCN2CCCC2)Nc2nccc(n2)-c2cccc(c2)COC1.Cl [Batch HCl 4, 11-(2-pyrrolidin-1-yl-ethoxy)-14,19-dioxa-5,7,26-triaza-tetracyclo[19.3.1.1(2,6).1(8,12)]heptacosa-1(25),2(26),3,5,8,10,12(27),16,21,23-decaene hydrochloride]",TGA mass loss,[1]; between ambient and 108° C.,6.5%
same,solid form / XRPD pattern post GVS compared with before,[5],unchanged
same,GVS mass gain,[5],1.6%
same,GVS mass lost on going to dryness,[5],2.8%
same,Solid Form Comment,[2],Group 1
"C1=CCOCc2cc(ccc2OCCN2CCCC2)Nc2nccc(n2)-c2cccc(c2)COC1.Cl [Batch HCl 6, 11-(2-pyrrolidin-1-yl-ethoxy)-14,19-dioxa-5,7,26-triaza-tetracyclo[19.3.1.1(2,6).1(8,12)]heptacosa-1(25),2(26),3,5,8,10,12(27),16,21,23-decaene hydrochloride]",decomposition / degradation temperature in TGA,[1]; hydrochloride,around 240 °C
same,TGA weight loss before degradation / melt with decomposition,[1]; result in words,very little weight loss
same,solid form / XRPD pattern post GVS compared with before,[5],unchanged
same,GVS mass gain,[5],1.6%
same,GVS mass lost on going to dryness,[5],2.4%
same,Solid Form Comment,[2],Group 3
"C1=CCOCc2cc(ccc2OCCN2CCCC2)Nc2nccc(n2)-c2cccc(c2)COC1.Cl [group 3 hydrochloride, 11-(2-pyrrolidin-1-yl-ethoxy)-14,19-dioxa-5,7,26-triaza-tetracyclo[19.3.1.1(2,6).1(8,12)]heptacosa-1(25),2(26),3,5,8,10,12(27),16,21,23-decaene hydrochloride]",solid form by XRPD after stress (Comment),"[4]; 40° C./75% RH, 0 hrs",Group three
same,solid form by XRPD after stress (Comment),"[4]; 40° C./75% RH, 24 hrs",Group three
same,solid form by XRPD after stress (Comment),"[4]; 40° C./75% RH, 48 hrs",Group three
same,solid form by XRPD after stress (Comment),"[4]; 40° C./75% RH, 72 hrs",Group one
same,solid form by XRPD after stress (Comment),"[4]; 60° C./96% RH, 0 hrs",Group three
same,solid form by XRPD after stress (Comment),"[4]; 60° C./96% RH, 24 hrs",Group one
"C1=CCOCc2cc(ccc2OCCN2CCCC2)Nc2nccc(n2)-c2cccc(c2)COC1.Cl [Batch HCl 1, 11-(2-pyrrolidin-1-yl-ethoxy)-14,19-dioxa-5,7,26-triaza-tetracyclo[19.3.1.1(2,6).1(8,12)]heptacosa-1(25),2(26),3,5,8,10,12(27),16,21,23-decaene hydrochloride]",equivalents of water corresponding to TGA weight loss,[1]; hydrochloride,1.4 equivalents of water
same,"TGA two stage weight loss, total",[1]; up to 100° C.,4.5%
same,GVS adsorption of water in the initial adsorption cycle,[5]; at 90% RH,5.5%
same,GVS mass lost on going to dryness,[5],5%
same,GVS mass regained,[5]; from dryness to 40% RH,2%
same,GVS total gain,[5]; whole GVS cycle,2%
same,Solid Form Comment,[2],Group 1 + 3 + amorphous
"C1=CCOCc2cc(ccc2OCCN2CCCC2)Nc2nccc(n2)-c2cccc(c2)COC1.Cl [Batch HCl 5, 11-(2-pyrrolidin-1-yl-ethoxy)-14,19-dioxa-5,7,26-triaza-tetracyclo[19.3.1.1(2,6).1(8,12)]heptacosa-1(25),2(26),3,5,8,10,12(27),16,21,23-decaene hydrochloride]",Solid Form Comment,[2],Group 2
